According to patent US20250388542A1, “ANALOGUES OF PENTAMIDINE AND USES THEREFOR” (Auransa Inc., priority 2018, published 2025):
Entries after “also recorded” stand apart in the source; their conditions may differ.

Columns and labels:
[1] = tested on: COLO 205-Luc colon cancer tumor cells; assay: Colon orthotopic in vivo study; conditions: for Body weight (mean ± SEM): in g (unit assumed)
Experimental: Approximately 2.0× Luciferase stably expressing colon cancer tumor cells (COLO 205-Luc) cells suspended in 30 μl of DPBS were injected into cecum wall of BALB/c nude mice.
The animals were assigned into groups using an Excel-based randomization software performing stratified randomization based upon their bioluminescence intensity. Treatment was initiated according to the predetermined regimen as shown in the experimental design table.
Mice were administered compound 1 at 10 mg/k daily, 20 mg/kg daily, 10 mg/kg twice daily, 20 mg/kg twice daily, or 40 mg/kg daily.
The major efficacy endpoint was bioluminescence (intensity values and change from baseline). The surgically inoculated mice were weighed and intraperitoneally administered luciferin at a dose of 150 mg/kg. Ten minutes after the luciferin injection, the animals were pre-anesthetized with the mixture gas of oxygen and isoflurane. When the animals were in a complete anesthetic state, the mice were moved into the imaging chamber for bioluminescence measurements with an IVIS (Lumina II) imaging system. The bioluminescence of the whole animal body, including primary and metastatic tumors, was measured and recorded once per week.
Tumor Growth Inhibition (TGI) was calculated for each group using the formula: TGI (%)=[1−(Ti−T0)/(Vi−V0)]×100; Ti is the average tumor bioluminescence value of a treatment group on a given day, T0 is the average tumor bioluminescence value of the treatment group on day 0, Vi is the average tumor bioluminescence value of the vehicle control group on the same day with Ti, and V0 is the average tumor bioluminescence value of the vehicle group on day 0.
For comparison among three or more groups, a one-way ANOVA was performed. When a non-significant F-statistics (a ratio of treatment variance to the error variance) was obtained, comparisons between groups were carried out with Dunnett t(2-sided). All data were analyzed using SPSS 17.0. p<0.05 is considered to be statistically significant.

[2] = Pharmacokinetics in liver and tissues after oral administration; assay type: in vivo, mice
Experimental: Compound 1 (20 mg per kg), Compound 5 (10 mg per kg), and pentamidine (20 mg per kg) were tested for their PK. Tissue samples were collected as described above in Example 23. Briefly, blood samples (approximately […]) were collected under light isoflurane anesthesia from retro orbital plexus of mice at 0.5, 1, 3, 8, 48 and 72 hr. Plasma samples were separated by centrifugation at 2,000×g for 6 minutes and stored below −70±10° C. until bioanalysis. Immediately after collection of blood, animals were euthanized using excess CO2 asphyxiation and samples were collected from set of five mice at each time point. Collected tissue samples were immediately dipped and rinsed three times in ice cold PBS (for 5-10 seconds/rinse using ˜5-10 mL fresh PBS in disposable petri dish for each rinse) and dried on blotting paper. Tissue samples were homogenized using ice-cold phosphate buffer saline (pH7.4) and homogenates were stored below −70±10° C. until analysis. Total homogenate volume was three times the tissue weight except for liver samples, total homogenate volume was ten times the liver weight. Bioanalysis process was determined by fit-for-purpose LC-MS/MS method.
Calibration standards were prepared by spiking the test compound into blank plasma. 10 μL of working calibration standard was spiked into 190 μL of blank Mice Plasma or tissue homogenate to generate linearly spiked calibration standards. Calibrator concentrations were 5,000, 2,000, 1,000, 200, 100, 20, 10, 2 and 1 ng/mL. Calibration standard samples were processed along with the test samples. Twenty-five μL aliquots of plasma or tissue homogenate test samples were treated with 100 μL of acetonitrile containing internal standard (500 ng/mL Glipizide). Samples were vortexed for 5 minutes. Samples were centrifuged for 10 minutes at a speed of 4000 rpm at 4° C. Following centrifugation, 100 μL of clear supernatant was transferred in 96-well plates of and analyzed using LC-MS/MS. Chromatographic separation was achieved using a Kintex Polar column (C18, 100×4.6 mm, 5μ) and column oven temperature 45° C. For compound 1 diHCl the mobile phase A was water with 0.1% formic acid in Acetonitrile; mobile phase B was 10 mM ammonium formate. However, the mobile phase for pentamidine and Compound 5 mobile phase A was water with 0.1% formic acid and mobile phase B acetonitrile with 0.1% formic acid.
The gradient program for Compound 1 was as follows: 5% B (1-2.40 min), 90% B (2.60-3.00 min), and the initial for B was 90%. The retention rate was 1.47 per minute and the internal standard Glipizide was 1 per 9 minutes. The column was maintained at 45° C. For pentamidine and Compound 5, analysis was performed using 233 MassSpec by AB Sciex API5000 with Turbo Ion Spray interface operating in a positive ionization mode. Quantification was performed using multiple reaction monitoring (MRM) method with the transitions of (m/z) 328 à (m/z) 311 for Compound 5 and (m/z) 548 à (m/z) 366 for Edoxaban (internal standard). While, for pentamidine (m/z) 341 à (m/z) 324 and (m/z) 548 à (m/z) 366 for Verapmil (internal standard).
The gradient program for Compound 5 was as follows: 10% B (0-0.2 min), 95% B (1.5-2 min), the initial for B was 10% and it stopped at 2.6 mins. The flow rate was 0.5 mL/min. The gradient program for pentamidine was as follows: 10% B (0-0.2 min), 95% B (1.4-2 min), the initial for B was 10% and it stopped at 2.5 mins. The flow rate was 0.5 mL/min.

[3] = 10 mg/kg, BID, day 0 after the start of treatment
[4] = 10 mg/kg, QD, day 0 after the start of treatment
[5] = 20 mg/kg, BID, day 0 after the start of treatment
[6] = 20 mg/kg, QD, day 0 after the start of treatment
[7] = 40 mg/kg, QD, day 0 after the start of treatment

## N=C(N)c1ccc(OCCCCCOc2ccc(C(=N)N)nc2)cc1 [Compound 1, 5-(5-(4-carbamimidoylphenoxy)pentyloxy)picolinimidamide]
[1]; [3]
  Relative bioluminescence (mean ± SEM): 100 ± 0%
  Body weight (mean ± SEM): 21.0 ± 0.4
[1]; 10 mg/kg, BID, day 3
  Body weight (mean ± SEM): 21.2 ± 0.4
[1]; 10 mg/kg, BID, day 7
  Relative bioluminescence (mean ± SEM): 447 ± 103%
  Body weight (mean ± SEM): 21.2 ± 0.4
[1]; 10 mg/kg, BID, day 10
  Body weight (mean ± SEM): 21.2 ± 0.3
[1]; 10 mg/kg, BID, day 14
  Relative bioluminescence (mean ± SEM): 1033 ± 385%
  Body weight (mean ± SEM): 21.8 ± 0.4
[1]; 10 mg/kg, BID, day 17
  Body weight (mean ± SEM): 22.1 ± 0.4
[1]; 10 mg/kg, BID, day 22
  Relative bioluminescence (mean ± SEM): 2993 ± 1325%
  Body weight (mean ± SEM): 21.2 ± 0.4
[1]; 10 mg/kg, BID, day 24
  Body weight (mean ± SEM): 21.5 ± 0.3
[1]; 10 mg/kg, BID, day 28
  Relative bioluminescence (mean ± SEM): 2715 ± 950%
  Body weight (mean ± SEM): 22.0 ± 0.3
[1]; [4]
  Relative bioluminescence (mean ± SEM): 100 ± 0%
  Body weight (mean ± SEM): 20.9 ± 0.5
[1]; 10 mg/kg, QD, day 3
  Body weight (mean ± SEM): 21.4 ± 0.5
[1]; 10 mg/kg, QD, day 7
  Relative bioluminescence (mean ± SEM): 351 ± 88%
  Body weight (mean ± SEM): 21.6 ± 0.5
[1]; 10 mg/kg, QD, day 10
  Body weight (mean ± SEM): 21.5 ± 0.4
[1]; 10 mg/kg, QD, day 14
  Relative bioluminescence (mean ± SEM): 1425 ± 930%
  Body weight (mean ± SEM): 21.7 ± 0.4
[1]; 10 mg/kg, QD, day 17
  Body weight (mean ± SEM): 21.7 ± 0.4
[1]; 10 mg/kg, QD, day 22
  Relative bioluminescence (mean ± SEM): 2819 ± 1388%
  Body weight (mean ± SEM): 21.7 ± 0.5
[1]; 10 mg/kg, QD, day 24
  Body weight (mean ± SEM): 22.2 ± 0.6
[1]; 10 mg/kg, QD, day 28
  Relative bioluminescence (mean ± SEM): 3171 ± 1602%
  Body weight (mean ± SEM): 22.6 ± 0.5
[1]; 20 mg/kg or 40 mg/kg daily
  reducing tumor growth: non-statistically significant trend
[1]; [5]
  Relative bioluminescence (mean ± SEM): 100 ± 0%
  Body weight (mean ± SEM): 20.9 ± 0.5
[1]; 20 mg/kg, BID, day 3
  Body weight (mean ± SEM): 20.9 ± 0.5
[1]; 20 mg/kg, BID, day 7
  Relative bioluminescence (mean ± SEM): 299 ± 91%
  Body weight (mean ± SEM): 21.1 ± 0.5
[1]; 20 mg/kg, BID, day 10
  Body weight (mean ± SEM): 21.1 ± 0.5
[1]; 20 mg/kg, BID, day 14
  Relative bioluminescence (mean ± SEM): 1108 ± 433%
  Body weight (mean ± SEM): 21.5 ± 0.6
[1]; 20 mg/kg, BID, day 17
  Body weight (mean ± SEM): 21.6 ± 0.6
[1]; 20 mg/kg, BID, day 22
  Relative bioluminescence (mean ± SEM): 2340 ± 1230%
  Body weight (mean ± SEM): 20.9 ± 0.5
[1]; 20 mg/kg, BID, day 24
  Body weight (mean ± SEM): 21.3 ± 0.5
[1]; 20 mg/kg, BID, day 28
  Relative bioluminescence (mean ± SEM): 1877 ± 1076%
  Body weight (mean ± SEM): 21.7 ± 0.5
[1]; [6]
  Relative bioluminescence (mean ± SEM): 100 ± 0%
  Body weight (mean ± SEM): 20.8 ± 0.4
[1]; 20 mg/kg, QD, day 3
  Body weight (mean ± SEM): 20.8 ± 0.3
[1]; 20 mg/kg, QD, day 7
  Relative bioluminescence (mean ± SEM): 171 ± 46%
  Body weight (mean ± SEM): 20.8 ± 0.4
[1]; 20 mg/kg, QD, day 10
  Body weight (mean ± SEM): 21.0 ± 0.3
[1]; 20 mg/kg, QD, day 14
  Relative bioluminescence (mean ± SEM): 817 ± 269%
  Body weight (mean ± SEM): 21.2 ± 0.3
[1]; 20 mg/kg, QD, day 17
  Body weight (mean ± SEM): 21.3 ± 0.4
[1]; 20 mg/kg, QD, day 22
  Relative bioluminescence (mean ± SEM): 923 ± 354%
  Body weight (mean ± SEM): 21.1 ± 0.4
[1]; 20 mg/kg, QD, day 24
  Body weight (mean ± SEM): 21.6 ± 0.3
[1]; 20 mg/kg, QD, day 28
  Relative bioluminescence (mean ± SEM): 1613 ± 1022%
  Body weight (mean ± SEM): 21.5 ± 0.4
[1]; [7]
  Relative bioluminescence (mean ± SEM): 100 ± 0%
  Body weight (mean ± SEM): 20.7 ± 0.5
[1]; 40 mg/kg, QD, day 3
  Body weight (mean ± SEM): 20.7 ± 0.5
[1]; 40 mg/kg, QD, day 7
  Relative bioluminescence (mean ± SEM): 210 ± 57%
  Body weight (mean ± SEM): 20.2 ± 0.4
[1]; 40 mg/kg, QD, day 10
  Body weight (mean ± SEM): 20.3 ± 0.5
[1]; 40 mg/kg, QD, day 14
  Relative bioluminescence (mean ± SEM): 357 ± 109%
  Body weight (mean ± SEM): 20.5 ± 0.5
[1]; 40 mg/kg, QD, day 17
  Body weight (mean ± SEM): 20.5 ± 0.5
[1]; 40 mg/kg, QD, day 22
  Relative bioluminescence (mean ± SEM): 525 ± 145%
  Body weight (mean ± SEM): 20.4 ± 0.5
[1]; 40 mg/kg, QD, day 24
  Body weight (mean ± SEM): 21.0 ± 0.5
[1]; 40 mg/kg, QD, day 28
  Relative bioluminescence (mean ± SEM): 512 ± 206%
  Body weight (mean ± SEM): 21.3 ± 0.5
[1]; all dose groups 10-40 mg/kg QD, 10-20 mg/kg BID
  body weight loss as indirect measure of toxicity: No groups lost weight obviously
[1]; tumor-bearing BALB/c nude mice, all dose groups
  toxicity / tolerability: no obvious toxicity; also recorded: does not have significant toxicity and is well tolerated
[2]; 20 mpk p.o. both
  Cmax normalized to dose, liver, relative to pentamidine: ~7 folds
[2]; Compound 1 20 mpk, Compound 5 10 mpk, p.o.
  exposure to the liver vs pentamidine (20 mpk): greater exposure to the liver than pentamidine
[2]; liver, p.o.
  half-life vs pentamidine: higher half-life than pentamidine
[2]; liver, small intestine, ileum, p.o.
  tissue exposure: increased exposure in the liver as well as small intestine and ileum
[2]; plasma vs other tissues, p.o.
  exposure to the plasma: low in comparison to other tissues
